Assay results taken from patent publication US20160038516A1, “COMBINATION CANCER THERAPY USING BISPHOSPHONATES AND ANTI-EGFR AGENTS” (Mone Zaidi Consulting, Inc., priority 2012, published 2016).
Entries after “also recorded” stand apart in the source; their conditions may differ.

Legend:
[1] = system: osteoclast formation; assay: Osteoclast formation assays in vitro; assay type: cell-based; conditions: data not shown
Method: We interrogated CMAP with this gene signature to identify chemicals with similar genomic mechanisms to bisphosphonates. Drug-drug matching was performed by a nonparametric, rank-based algorithm using Kolmogorov-Smirnov statistic. Gene Set Enrichment Analysis (GSEA) examined shared mechanisms of action to reveal both mimics and anti-mimics of a given compound or disease. Of the chemicals displaying the highest enrichment scores, the top two were anti-cancer agents, namely the PARP inhibitor 1,5-isoquinolinediol, and a first-generation EGFR kinase inhibitor tyrphostin AG1478 (FIG. 2). These compounds were confirmed as “true” bisphosphonate mimetics using osteoclast formation assays in vitro. As with bisphosphonates, osteoclast formation was inhibited by both 1,5-isoquinolinediol and tyrphostin AG1478, the latter in a concentration-dependent manner (data not shown).

[2] = system: HCC827 (del746-750) lung cancer cell line; assay type: cell-based
Method: (§1) To validate this, we evaluated the cellular effects of bisphosphonates in EGFR-negative and EGFR-positive cancer cell lines. Mutated cancer cell lines, namely H520, H1666, H3255, HC827, A549, H1650, MCF-7, Caco-2, SW620, and SW480, were grown using standard protocols, and exposed to bisphosphonates. Thereafter, the cells were subject to the MTT assay to assess viability using a commercial kit. Additionally, in certain instances, annexin V staining was performed using a previously described protocol. Quantitative PCR (qPCR) for BCL, Bax, survivin, as well as for the thirteen bisphosphonate signature genes (FIG. 1) was carried out. Protein extracts were subject to SDS-PAGE followed by Western immunoblotting using antibodies to PARP, Akt (total and phosphorylated), Erk (total and phosphorylated), cyclin D1, cyclin B1, PCNA, and GAPDH (Santa Cruz, USA). Flow cytometry and colony forming assays were also performed.
(§2) Based on this prediction, and the common occurrence of these mutations in lung cancer patients, we examined the effect of available approved bisphosphonates on lung cancer cell lines that are driven by the L858R (H3255) or del746-750 (HCC827) mutation (FIGS. 6 and 7).

[3] = system: H3255 (L858R) lung cancer cell line
Method: as §1, §2

[4] = molecular target: recombinant EGFR (Homo sapiens, UniProt P00533); conditions: 100 μM, incubated 1 hour
Text: We used a cell-free in vitro kinase assay using recombinant EGF receptor (EGFR) to determine whether bisphosphonates inhibit the EGFR directly or indirectly. […] A kinase reaction was stimulated with the addition of ATP, following which phosphorylation of the substrate […] was detected using a horseradish peroxidase (HRP)-conjugated anti-phosphotyrosine antibody.

[5] = system: H1975 (L858R/T790M) lung adenocarcinoma cell line; assay: Colony formation, H1975; assay type: cell-based
Method: To test this hypothesis, colony formation and cell viability assays were carried out using a L858R/T790M-derived lung adenocarcinoma cell line, H1975.

[6] = system: lung cancer cell line A549; conditions: A549, wild type EGFR, ras mutation driven
Method: as §1

[7] = system: HCC827 cells; conditions: mouse, in vivo
Method: To verify that that the in vitro experiments described above translated to in vivo efficacy, the effect of bisphosphonates and EGFR inhibitors on tumors in mice were evaluated. HCC827 cells (1×10^8) were injected into the right flank of 6- to 8-week-old female BALB/c nu/nu mice. […] A total of 10 treatments were given, with a 48-hour rest period between injections. Tumor volumes were measured during the rest period following each treatment.
To verify the in vivo mechanism of action, Western analysis and immunohistochemistry were performed on tumor samples at the end of the 10-treatment course. For Western analysis, whole cell protein extracts were obtained with radio-immunoprecipitation assay buffer following standard protocols (Santa Cruz Biotechnology). […] Biotinylated anti-rabbit IgG (E0432, Dako) was used as secondary antibody. Staining was visualized using DAB, and slides were counterstained with hematoxylin, dehydrated, and mounted. Bright-field and fluorescent images were captured using a Stereoscope or Axioplan 2 IE microscope (Zeiss).

[8] = molecular target: T1, recombinant Her2 (Homo sapiens, UniProt P04626); assay: Cell-free in vitro kinase assay using recombinant Her2 (Kinase-Glo); assay type: biochemical; conditions: incubated 30 minutes with 50 ng recombinant Her2
T1 construct: purchased GENWAY
Method: We also performed a cell-free in vitro kinase assay to determine if bisphosphonates could inhibit Her2 activity. Briefly, Ert, ZA, Ris, MA, or Til (doses as shown in FIG. 28A) were incubated for 30 minutes with 50 ng recombinant Her2 or EGFR^L858R protein (GENWAY) at 4° C. and tyrosine kinase activity was measured. Following addition of assay buffer (SIGMA) which contained the poly(Glu, Tyr) (4:1) substrate and ATP, the kinase reaction was allowed to proceed for 30 minutes at 30° C. An equal volume of Kinase-Glo substrate (PROMEGA) was then added, and luminescence read manually (TD-20/20, TURNER DESIGN).

[9] = system: HCC827 cells; assay: FACS analysis and Western blotting for cell cycle and apoptosis, HCC827; assay type: cell-based
Method: as §1

[10] = system: HER2-expressing (BT474) breast cancer cell line; assay: FACS cell cycle profile (sub-G1), BT474; assay type: cell-based
[11] = system: BT474 cells; assay: MTT cell viability, BT474; assay type: cell-based; conditions: BT474, overexpress Her2
Text: (§3) Thereafter, the cells were subject to the MTT assay to assess viability using a commercial kit.

[12] = system: non-EGFR, non-HER2-expressing (MDA-MB-453) breast cancer cell line; assay: FACS cell cycle profile (sub-G1), MDA-MB-453; assay type: cell-based
[13] = system: EGFR negative (SW620) colon cancer cell line; assay: Colony formation (clonogenic assay), SW620; assay type: cell-based
Method: as §1

[14] = system: MDA-MB-231 cells; assay: Colony formation, MDA-MB-231; assay type: cell-based; conditions: tiludronate 20 μM, data not shown
[15] = system: MDA-MB-231 cells; assay: MTT cell viability, MDA-MB-231; assay type: cell-based; conditions: MDA-MB-231, overexpress EGFR
Text: as §3

[16] = system: HCC827 cells; assay: Colony formation, HCC827; assay type: cell-based; conditions: tiludronate 40 μM
Method: as §1, §2

[17] = system: EGFR-expressing colon cells (SW480); assay: Colony formation (clonogenic assay), SW480; assay type: cell-based
Method: as §1

[18] = system: EGFR-expressing (MDA-MB-231) breast cancer cell line; assay: FACS cell cycle profile (sub-G1), MDA-MB-231; assay type: cell-based

T1 sequence (P04626 23-1255): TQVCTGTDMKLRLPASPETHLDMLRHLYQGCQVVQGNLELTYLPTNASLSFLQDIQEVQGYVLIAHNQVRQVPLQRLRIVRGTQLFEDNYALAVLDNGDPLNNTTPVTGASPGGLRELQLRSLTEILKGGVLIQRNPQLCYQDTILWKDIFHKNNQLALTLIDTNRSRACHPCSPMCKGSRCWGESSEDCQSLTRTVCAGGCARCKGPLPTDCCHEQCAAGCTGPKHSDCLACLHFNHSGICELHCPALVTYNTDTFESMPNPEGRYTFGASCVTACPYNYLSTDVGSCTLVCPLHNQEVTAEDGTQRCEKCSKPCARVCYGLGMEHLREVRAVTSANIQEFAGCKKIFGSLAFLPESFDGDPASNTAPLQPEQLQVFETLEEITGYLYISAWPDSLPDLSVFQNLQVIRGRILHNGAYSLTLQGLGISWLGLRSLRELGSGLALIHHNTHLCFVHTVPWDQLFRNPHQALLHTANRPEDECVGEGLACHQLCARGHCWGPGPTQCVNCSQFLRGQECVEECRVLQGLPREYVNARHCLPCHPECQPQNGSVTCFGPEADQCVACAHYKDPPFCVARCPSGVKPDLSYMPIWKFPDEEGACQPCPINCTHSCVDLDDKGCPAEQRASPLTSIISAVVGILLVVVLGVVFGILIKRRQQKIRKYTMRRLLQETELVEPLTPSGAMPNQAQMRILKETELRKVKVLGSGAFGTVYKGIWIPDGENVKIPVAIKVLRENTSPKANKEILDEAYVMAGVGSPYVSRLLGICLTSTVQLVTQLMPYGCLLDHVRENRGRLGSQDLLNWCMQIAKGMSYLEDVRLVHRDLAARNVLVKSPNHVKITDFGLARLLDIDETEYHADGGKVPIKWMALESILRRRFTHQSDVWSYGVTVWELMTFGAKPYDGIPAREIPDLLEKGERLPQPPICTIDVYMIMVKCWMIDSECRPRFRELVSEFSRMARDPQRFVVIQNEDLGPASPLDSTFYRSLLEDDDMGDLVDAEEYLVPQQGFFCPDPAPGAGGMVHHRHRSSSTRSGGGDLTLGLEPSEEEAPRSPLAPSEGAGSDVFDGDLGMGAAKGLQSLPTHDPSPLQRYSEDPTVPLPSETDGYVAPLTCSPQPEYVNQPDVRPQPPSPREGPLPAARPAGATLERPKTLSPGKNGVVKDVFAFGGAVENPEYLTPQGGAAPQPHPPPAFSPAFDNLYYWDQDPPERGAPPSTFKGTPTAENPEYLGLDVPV
Chain of recombinant EGFR (P00533 25-1210): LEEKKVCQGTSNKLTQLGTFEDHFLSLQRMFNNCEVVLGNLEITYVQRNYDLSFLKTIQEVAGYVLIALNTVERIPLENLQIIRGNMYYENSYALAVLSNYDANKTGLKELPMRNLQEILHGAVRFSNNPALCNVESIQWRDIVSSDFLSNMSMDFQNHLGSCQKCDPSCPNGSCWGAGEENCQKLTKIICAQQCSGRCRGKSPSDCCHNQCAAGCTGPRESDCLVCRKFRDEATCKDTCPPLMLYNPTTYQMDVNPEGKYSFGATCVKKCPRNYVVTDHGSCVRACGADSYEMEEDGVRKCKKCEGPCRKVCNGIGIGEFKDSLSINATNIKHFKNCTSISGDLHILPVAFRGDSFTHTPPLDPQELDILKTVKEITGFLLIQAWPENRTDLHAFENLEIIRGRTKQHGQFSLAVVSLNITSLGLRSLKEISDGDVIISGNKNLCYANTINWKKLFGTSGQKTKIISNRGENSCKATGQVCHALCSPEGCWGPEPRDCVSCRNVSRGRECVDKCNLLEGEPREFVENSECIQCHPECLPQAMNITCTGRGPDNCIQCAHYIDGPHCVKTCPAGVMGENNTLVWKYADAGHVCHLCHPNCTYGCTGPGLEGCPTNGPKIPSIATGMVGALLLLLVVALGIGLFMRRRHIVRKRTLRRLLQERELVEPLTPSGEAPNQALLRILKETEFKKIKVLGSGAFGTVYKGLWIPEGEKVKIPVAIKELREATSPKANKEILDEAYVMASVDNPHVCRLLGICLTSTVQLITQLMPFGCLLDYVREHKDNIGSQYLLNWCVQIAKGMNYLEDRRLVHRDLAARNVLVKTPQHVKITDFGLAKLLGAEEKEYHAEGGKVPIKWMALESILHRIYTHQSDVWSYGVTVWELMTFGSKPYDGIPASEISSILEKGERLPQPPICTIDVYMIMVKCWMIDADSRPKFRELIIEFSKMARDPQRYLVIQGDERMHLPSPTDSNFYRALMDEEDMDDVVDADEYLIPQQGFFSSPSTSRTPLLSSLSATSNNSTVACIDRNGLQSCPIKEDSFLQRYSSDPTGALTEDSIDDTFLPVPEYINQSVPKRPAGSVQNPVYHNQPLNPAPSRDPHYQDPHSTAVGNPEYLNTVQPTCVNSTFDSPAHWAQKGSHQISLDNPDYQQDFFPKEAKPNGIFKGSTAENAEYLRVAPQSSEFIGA

Oc1cccc2c(O)nccc12 [1,5-isoquinolinediol]
osteoclast formation [1]: inhibited

NCCCC(O)(P(=O)(O)O)P(=O)(O)O [alendronate]
cell viability / cell survival [2]: inhibiting cell survival
cell viability / cell survival [3]: inhibiting cell survival
EGFR kinase activity [4]: directly inhibited EGFR kinase activity

C#Cc1cccc(Nc2ncnc3cc(OCCOC)c(OCCOC)cc23)c1 [erlotinib]
colony formation [5]: did not inhibit colony formation
cell viability [6]: poorly responsive
AKT phosphorylation in tumor samples [7]: inhibited AKT phosphorylation
CD31 expression (blood vessels) in tumors [7]: inhibited CD31 expression
ERK phosphorylation in tumor samples [7]: did not inhibit ERK phosphorylation
Her2 tyrosine kinase activity [8]: inhibit the tyrosine kinase activity of Her2
cell cycle and apoptosis [9]: mainly increased PARP expression and apoptosis

O=P(O)(O)C(NC1CCCCCC1)P(=O)(O)O [incadronate]
cell viability / cell survival [2]: inhibiting cell survival
cell viability / cell survival [3]: inhibiting cell survival

O=P(O)(O)C(O)(Cc1cnc2ccccn12)P(=O)(O)O [minodronic acid]
cell viability / cell survival [2]: inhibiting cell survival; also recorded: two most potent
cell viability / cell survival [3]: inhibiting cell survival; also recorded: two most potent
Her2 tyrosine kinase activity [8]: inhibit the tyrosine kinase activity of Her2

NCCCCCC(O)(P(=O)(O)O)P(=O)(O)O [neridronate]
cell viability / cell survival [2]: failed to affect HCC827 cell viability

NCCC(O)(P(=O)(O)O)P(=O)(O)O [pamidronate]
cell viability / cell survival [2]: failed to affect HCC827 cell viability

O=P(O)(O)C(O)(Cc1cccnc1)P(=O)(O)O [risedronate]
cell viability / cell survival [2]: inhibiting cell survival
cell viability / cell survival [3]: inhibiting cell survival
Her2 tyrosine kinase activity [8]: inhibit the tyrosine kinase activity of Her2

O=P(O)(O)C(Sc1ccc(Cl)cc1)P(=O)(O)O [tiludronate]
colony formation [5]: did not affect colony formation
cell viability / cell survival [2]: failed to affect cell viability; also recorded: without effect
sub-G1 fraction (apoptosis) [10]: has no effect
cell viability [11]: has no effect
cell viability / cell survival [3]: failed to affect cell viability; also recorded: without effect
sub-G1 fraction (apoptosis) [12]: has no effect
colony formation [13]: has no effect
colony formation [14]: not seen
cell viability [15]: has no effect
colony formation [16]: not seen
colony formation [17]: has no effect
Her2 tyrosine kinase activity [8]: inhibit the tyrosine kinase activity of Her2
sub-G1 fraction (apoptosis) [18]: has no effect

COc1cc2ncnc(Nc3cccc(Cl)c3)c2cc1OC [tyrphostin AG1478]
osteoclast formation [1]: inhibited
